Results from patent US10327423B2, “Antimicrobial compounds and compositions, and uses thereof” (Akeso Biomedical, Inc., priority 2014, dated 2019).

Columns and labels:
[1] = test system: Staphylococcus epidermidis F1513; test: Biofilm formation on plastic coated UV beads; type: cell-based; details: different concentrations of Fe-QA; T=24 h
Procedure: (§1) Bacteria (Enterococcus faecalis NCTC 12697, Staphylococcus epidermidis F1513 and Staphylococcus aureus ATCC 25923) were grown on Brain heart infusion (BHI) passaged to new medium either containing Fe-QA or alone. Growth suspensions were prepared at 0.0001 OD/ml and then allowed to grow at 37° C. under normal atmospheric conditions for 24 h in BHI with plastic coated UV beads (Lascells). […], 10 μl suspension was serially diluted 10 fold to 10-3, 10-4, 10-5, 10-6, 10-7, 10-8. For each dilution, 10 μl was spotted on BHI agar plates and colonies counted after 24 h. The beads were also removed washed in PBS before adding to 1 ml PBS. After vortex mixing, 10 μl of the cell suspension was serially diluted as above and cell counts carried out.
The effect of Fe-QA on biofilm formation by S. epidermidis F1513 was tested as described in the materials and methods of Example 1.

[2] = test system: Pseudomonas aeruginosa; test: Planktonic growth rate in RPMI-1640; type: cell-based; details: Fe-QA 100 μM
Procedure: The growth rate of Uropathogenic E. coli UPEC-536 in RPMI-1640 media over a period of 24 hours was compared to the growth rate of UPEC in RPMI-1640 media, but in the presence of 100 μM Fe-QA. The growth rate of Pseudomonas aeruginosa in RPMI-1640 media was also compared to the growth rate of Pseudomonas aeruginosa in RPMI-1640 media, but in the presence of 100 μM Fe-QA.

[3] = test system: PAO-1 strains of Pseudomonas aeruginosa; test: Biofilm formation on contact lenses (ESEM); type: cell-based; details: FeQ 340 μM in LB; 37° C.; 24 hours
Procedure: To investigate biofilm formation on the contact lens, clinically determined PAO-1 strains of Pseudomonas aeruginosa were incubated with the lenses in either Luria-Bertani Media (LB) or LB with a final concentration of 340 μM FeQ at 37° C. for 24 hours in a non-shaking incubator. The lenses were then washed 6 times with PBS+0.05% Tween, before being stored overnight in PBS+0.05% Tween. In preparation for the ESEM, formaldehyde was added to a final concentration of 1% and incubated for 10 minutes in order to inactivate the bacteria. The lenses were then washed 4 times with PBS+0.05% Tween, and immediately before analysis the lenses were washed a further two times with distilled water.

[4] = test system: Pseudomonas aeruginosa (PAO-1 Clinical); test: Growth curve of antibiotic resistant clinical isolate with kanamycin and FeQ; type: cell-based; details: kanamycin and FeQ added to growth media
Procedure: The impact on the growth curve of an antibiotic resistant clinical isolate of Pseudomonas aeruginosa (PAO-1 Clinical) grown in the presence of kanamycin and FeQ versus the clinical isolate grown in the presence of (i) FeQ, (ii) kanamycin or (iii) without addition of FeQ or kanamycin (control) was assessed.

[5] = test system: H. pylori CCUG 17875; test: H. pylori attachment to human gastric tissue sections (FITC-labelled bacteria); type: cell-based, Helicobacter pylori; details: Fe-QA 1 mM and 0.2 mM; 1 hour at room temperature
Procedure: The ability of H. pylori CCUG 17875 to bind to samples of human gastric tissue in the presence of Lewis b antigen, Le^b, and two concentrations of Fe-QA (1 mM and 0.2 mM) was measured. Binding was quantified by fluorescence using H. pylori that had been labeled with fluorescein using FITC (fluorescein isothiocyanate), and human gastric tissue that was embedded in […]. The bacteria were suspended in blocking buffer (1% BSA in PBS) and applied to re-hydrated histo-sections of human gastric tissue. Binding was assessed microscopically, and quantified as the average number of bacteria bound to the tissue.

[6] = test system: Enteropathogenic E. coli (EPEC) strain E2348/69; test: Growth curve of antibiotic resistant EPEC with gentamicin and Fe complex; type: cell-based, Escherichia coli; details: for rate of growth relative to gentamicin alone: gentamicin 1.25 μM and FeQ 10 to 100 μM
Procedure: The impact on the growth curve of antibiotic resistant Enteropathogenic E. coli (EPEC) strain E2348/69 (genotype Wild Type EPEC O17:H6) when grown in the presence of (i) gentamicin (1.25 μM), (ii) Fe-Tyr (100 μM), (iii) gentamicin (1.25 μM) and Fe-Tyr (1.25 μM), and (iv) a control with no gentamicin or Fe-Tyr present was determined.
(§2) The impact on the growth curve of antibiotic resistant Enteropathogenic E. coli (EPEC) strain E2348/69 (genotype Wild Type EPEC O17:H6) when grown in the presence of a fixed concentration of gentamicin (1.25 μM) and an increasing concentration of FeQ versus the strain grown in the presence of only FeQ or only gentamicin, was determined.
as §2, with “FeDOPA” for “FeQ”

[7] = test system: Staphylococcus aureus ATCC 25923; test: Biofilm formation on plastic coated UV beads; type: cell-based; details: different concentrations of Fe-QA; T=24 h
Procedure: as §1
The effect of Fe-QA on biofilm formation by S. aureus was tested as described in the materials and methods of Example 1.

**Q.** Which results are given for `O=C1[O][Fe]23([O]C(=O)[C@]4(C[C@@H](O)[C@H](O)[C@H](O)C4)[O]2)([O]C(=O)[C@]2(C[C@@H](O)[C@H](O)[C@H](O)C2)[O]3)[O][C@@]12C[C@@H](O)[C@H](O)[C@H](O)C2` [FeQ, a complex of quinic acid with Fe III]?
**A.** biofilm formation on plastic coated UV beads [1]: inhibited; planktonic growth rate [2]: does not inhibit the growth; biofilm formation on contact lens (ESEM) [3]: inhibits biofilm formation; growth rate versus kanamycin or FeQ alone [4]: large reduction in the growth rate; growth rate versus kanamycin or FeQ alone ([4]; listed as Fe-QA): retarded; binding of H. pylori to human gastric tissue [5]: significantly reduced; growth rate ([6]; FeQ alone, 10 μM to 100 μM): did not impact the growth rate; rate of growth relative to gentamicin alone [6]: inhibited; rate of growth relative to gentamicin alone ([6]; listed as Fe-QA): loses its resistance; biofilm formation on plastic coated UV beads [7]: inhibited
